Values quoted from earlier work in article PMC8241576 (Biophysical Journal, 2021).

Conditions: in water at 25°C

In the case of `Cl.N=c1ccc2c(-c3ccccc3C(=O)O)c3ccc(N)cc3oc-2c1` [Rh110, Rhodamine 110], the diffusion coefficient is listed as 4.4 × 10^−6 cm^2 s^−1 and the “hydrodynamic radius of free dye” value is listed as about 0.56 nm.
